The subject of test [1] is Nucleic Acid. In words: Binding affinity to HIV1 3B mini TAR RNA assessed as melting temperature by UV spectrometry based thermal denaturation assay. Format: nucleic-acid assay. The settings on record: Human immunodeficiency virus 1.
Test [2] concerns Nucleic Acid. In words: Binding affinity to HIV1 3B mini TAR RNA assessed as change in melting temperature by UV spectrometry based thermal denaturation assay. Format: nucleic-acid assay. To be noted: Human immunodeficiency virus 1.

For the molecule `Cc1cn(CC(=O)N(CCNC(=O)CN(CCNC(=O)[C@@H](N)CCCCN)C(=O)Cn2cnc3c(=O)[nH]c(N)nc32)CC(=O)NCCN(CC(=O)NCCN(CC(=O)NCCN(CC(=O)NCCN(CC(=O)NCCN(CC(=O)NCCN(CC(=O)N[C@@H](CCC(N)=O)C(=O)O)C(=O)Cn2cnc3c(N)ncnc32)C(=O)Cn2cnc3c(=O)[nH]c(N)nc32)C(=O)Cn2cnc3c(N)ncnc32)C(=O)Cn2ccc(N)nc2=O)C(=O)Cn2cnc3c(N)ncnc32)C(=O)Cn2ccc(N)nc2=O)c(=O)[nH]c1=O`, the Tm (as a rule, the temperature at which the thermal transition is half complete) in the test on Nucleic Acid [1] was 43.2 °C.

As to `Cc1cn(CC(=O)N(CCNC(=O)CN(CCNC(=O)[C@@H](N)CCCCN)C(=O)Cn2cnc3c(=O)[nH]c(N)nc32)CC(=O)NCCN(CC(=O)NCCN(CC(=O)NCCN(CC(=O)NCCN(CC(=O)NCCN(CC(=O)NCCN(CC(=O)N[C@@H](CCC(N)=O)C(=O)O)C(=O)Cn2cnc3c(N)ncnc32)C(=O)Cn2cnc3c(=O)[nH]c(N)nc32)C(=O)Cn2cnc3c(N)ncnc32)C(=O)Cn2ccc(N)nc2=O)C(=O)Cn2ccc(N)nc2=O)C(=O)Cn2ccc(N)nc2=O)c(=O)[nH]c1=O`, the midpoint of thermal melting (Tm) with Nucleic Acid [1] came to 40.5 °C. The ΔTm (commonly the shift of the melting midpoint relative to a reference) in the test on Nucleic Acid [2] is 0.5 °C.

These data come from ChEMBL document CHEMBL1140453, “Solid-phase synthesis and thermal denaturation study of cyclic PNAs targeting the HIV-1 TAR RNA loop” (Bioorg Med Chem Lett, 2007).
